inhibition, Ki and Emax data for 13 compounds are collected here from patent US6245780A, “Tetrahydroisoquinolinyl-indole derivatives for the treatment of depression” (American Home Products Corp, priority 2000, dated 2001).

One assay addresses T1, human 5-HT1A receptor (Homo sapiens, UniProt P08908).
T1 construct: expressed in transfected cells; host or cells: Chinese hamster ovary cells (5-HT1A.CHO)
T1 sequence (P08908 1-422): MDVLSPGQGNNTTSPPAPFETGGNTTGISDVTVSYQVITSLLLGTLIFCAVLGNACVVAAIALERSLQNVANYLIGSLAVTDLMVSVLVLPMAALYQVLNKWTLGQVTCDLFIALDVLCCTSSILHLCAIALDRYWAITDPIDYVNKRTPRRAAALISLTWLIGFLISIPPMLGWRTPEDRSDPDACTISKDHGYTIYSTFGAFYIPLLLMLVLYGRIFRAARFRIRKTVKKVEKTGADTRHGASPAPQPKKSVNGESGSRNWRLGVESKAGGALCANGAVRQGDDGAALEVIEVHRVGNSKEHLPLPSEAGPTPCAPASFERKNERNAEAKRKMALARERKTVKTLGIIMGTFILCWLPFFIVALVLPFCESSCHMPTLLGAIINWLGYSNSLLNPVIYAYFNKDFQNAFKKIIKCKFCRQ
Kind of assay: human 5-HT1A receptor binding, [3H]8-OH-DPAT radioligand, membranes of 5-HT1A.CHO cells. Particulars: for inhibition at 1 µM: 1 uM compound, value in parentheses, read-out: 5-HT1A % inh @ 1 uM. The procedure: (§1) The PCR cloning of the human 5-HT1A receptor subtype from a human genomic library has been described previously by Chanda et al., Mol. Pharmacol., 43:516 (1993). A stable Chinese hamster ovary cell line expressing the human 5-HT1A receptor subtype (5-HT1A.CHO cells) was employed throughout this study. Cells were maintained in DMEM supplemented with 10% fetal calf serum, non-essential amino acids and penicillin/streptomycin.
Cells were grown to 95-100% confluency as a monolayer before membranes were harvested for binding studies. Cells were gently scraped from the culture plates, transferred to centrifuge tubes, and washed twice by centrifugation (2000 rpm for 10 min., 4° C.) in buffer (50 mM Tris; pH 7.5). The resulting pellets were aliquoted and maintained at -80° C. On the day of assay, the cells were thawed on ice, and resuspended in buffer. Studies were conducted using [^3 H]8-OH-DPAT as the radioligand. The binding assay was performed in 96 well microtiter plates in a final total volume of 250 μL of buffer. Comparison experiments were performed by using 7 concentrations of unlabelled drug and a final ligand concentration of 1.5 nM. Non-specific binding was determined in the presence of 10 μM 5HT. Saturation analysis was conducted by using [^3 H]8-OH-DPAT at concentrations ranging from 0.3-30 nM. Following a 30 minute incubation at room temperature, the reaction was terminated by the addition of ice cold buffer and rapid filtration using a M-96 Brandel Cell Harvester (Gaithersburg, Md.) through a GF/B filter presoaked for 30 minutes in 0.5% polyethyleneimine.

In the next assay the target is T2, 5-HT1A cloned receptor (Homo sapiens, UniProt P08908).
T2 construct: expressed in transfected cells; host or cells: Chinese hamster ovary cells (5-HT1A.CHO)
T2 sequence (P08908 1-422): T1 sequence (P08908 1-422)
The assay can be described thus: [35S]-GTPγS binding assay, 5-HT1A cloned receptor membrane fragments. It is filed as biochemical. Particulars: maximum agonist response defined by excess 8-OH-DPAT; value in parentheses; read-out: GTPgS % EMax.
Excerpt: as §1
The [^35 S]-GTPγS binding assay was similar to that used by Lazareno and Birdsall, Br. J. Pharmacol. 109:1120 (1993). Briefly, 5-HT1A cloned receptor membrane fragments (as used for 5-HT1A receptor binding assays) were stored at -70° C. When needed, membranes were rapidly thawed, centrifuged at 40,000×g for 10 minutes and resuspended at 4° C. for 10 minutes in assay buffer (25 mM HEPES, 3 mM MgCl2, 100 mM NaCl, 1 mM EDTA, 10 uM GDP, […], pH 8.0). These membranes were then incubated for 30 min at 30° C. with [^35 S]GTPgS (1 nM) in the presence of vehicle, test compound (one to eight concentrations), or excess 8-OH-DPAT to define maximum agronist response. All reactions were terminated by the addition of ice cold Tris buffer followed by rapid filtration using a Tom Tech® filtration device to separate bound from free [^35 S]GTPgS. Agonists produced an increase in the amount of [^35 S]GTPgS bound whereas antagonists produced no increase in binding. Bound radioactivity was counted and analyzed as above.
(In general: Binding of GTPγS marks nucleotide exchange on a G protein.)

A further assay deals with T3, serotonin transporter (Rattus norvegicus, UniProt P31652).
T3 construct: frontal cortical membranes prepared from male Sprague-Dawley rats; from tissue; host or cells: rat (male Sprague-Dawley) frontal cortex membranes
T3 sequence (P31652 whole entry): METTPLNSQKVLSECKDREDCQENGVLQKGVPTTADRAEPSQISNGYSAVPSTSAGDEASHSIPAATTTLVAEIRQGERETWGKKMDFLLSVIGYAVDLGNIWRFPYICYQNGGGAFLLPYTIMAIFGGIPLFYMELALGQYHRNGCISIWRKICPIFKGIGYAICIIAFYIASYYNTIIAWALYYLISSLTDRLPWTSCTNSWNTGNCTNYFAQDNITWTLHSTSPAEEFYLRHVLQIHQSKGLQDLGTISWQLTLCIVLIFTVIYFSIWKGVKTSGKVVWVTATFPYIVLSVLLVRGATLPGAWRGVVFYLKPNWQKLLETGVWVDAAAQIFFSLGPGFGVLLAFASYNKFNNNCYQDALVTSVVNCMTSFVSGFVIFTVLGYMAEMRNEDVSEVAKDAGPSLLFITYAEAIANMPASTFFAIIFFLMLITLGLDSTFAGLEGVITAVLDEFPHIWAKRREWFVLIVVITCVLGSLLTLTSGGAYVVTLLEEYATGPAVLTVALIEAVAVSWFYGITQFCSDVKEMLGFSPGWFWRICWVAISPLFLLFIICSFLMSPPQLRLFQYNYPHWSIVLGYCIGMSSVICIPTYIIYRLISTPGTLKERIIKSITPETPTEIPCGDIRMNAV
The assay can be described thus: affinity for the serotonin transporter (ST), 3H-paroxetine, rat frontal cortical membranes. Type of assay: binding, rat (male Sprague-Dawley). The conditions noted are these: 3H-paroxetine 0.1 nM, 60 min, 25° C. The procedure:
A protocol similar to that used by Cheetham et al., Neuropharmacol., 32:737 (1993) was used to determine the affinity of compounds for the serotonin transporter. Briefly, frontal cortical membranes prepared from male Sprague-Dawley rats were incubated with ^3 H-parsoxetinc (0.1 nM) for 60 min at 25° C. All tubes also contained either vehicle, test compound (one to eight concentrations), or a saturating concentration of fluoxetine (10 μM) to define […]. All reactions were terminated by the addition of ice cold Tris buffer followed by rapid filtration using a Tom Tech filtration device to separate bound from free ^3 H-paroxetine. Bound radioactivity was quantitated using a Wallac 1205 Beta Plate® counter. Nonlinear regression analysis was used to determine IC50 values which were converted to Ki values using the method set forth in Cheng and Prusoff, Biochem. Pharmacol., 22:3099 (1973) ([…].

Setting [1] is: [3H]8-OH-DPAT, 1.5 nM, 5-HT1A.CHO membranes, read-out: 5-HT1A Ki.

Read-outs that look alike come from different tables or passages of the source.

Turning to `COc1ccc2c(c1)CN([C@H]1CC[C@@H](c3c[nH]c4ccc(C#N)cc43)CC1)CC2` [Example 1a, 3-[(1,4-cis)-4-(7-Methoxy-3,4-dihydro-1H-isoquinolin-2-yl)-cyclohexyl]-1H-indole-5-carbonitrile], the inhibition at 1 µM at human 5-HT1A receptor ([3H]8-OH-DPAT) was 26%. Consider `COc1ccc2c(c1)CN([C@H]1CC[C@H](c3c[nH]c4ccc(C#N)cc43)CC1)CC2` [Example 1b, 3-[(1,4-trans)-4-(7-Methoxy-3,4-dihydro-1H-isoquinolin-2-yl)-cyclohexyl]-1H-indole-5-carbonitrile], for which the inhibition at 1 µM at human 5-HT1A receptor ([3H]8-OH-DPAT) is 48%. Regarding `COc1cccc2c1CN([C@H]1CC[C@@H](c3c[nH]c4ccc(C#N)cc43)CC1)CC2` [Example 2a, 3-[(1,4-cis)-4-(8-Methoxy-3,4-dihydro-1H-isoquinolin-2-yl)-cyclohexyl]-1H-indole-5-carbonitrile], the inhibition at 1 µM on human 5-HT1A receptor ([3H]8-OH-DPAT) turned out to be 14%. As to `COc1cccc2c1CN([C@H]1CC[C@H](c3c[nH]c4ccc(C#N)cc43)CC1)CC2` [Example 2b, 3-[(1,4-trans)-4-(8-Methoxy-3,4-dihydro-1H-isoquinolin-2-yl)-cyclohexyl]-1H-indole-5-carbonitrile], the inhibition at 1 µM at human 5-HT1A receptor ([3H]8-OH-DPAT) turned out to be 46%. In the case of `COc1ccc2c(c1)CCN([C@H]1CC[C@@H](c3c[nH]c4ccc(C#N)cc43)CC1)C2` [Example 3a, 3-[(1,4-cis)-4-(6-Methoxy-3,4-dihydro-1H-isoquinolin-2-yl)-cyclohexyl]-1H-indole-5-carbonitrile], on human 5-HT1A receptor ([3H]8-OH-DPAT), the inhibition at 1 µM came out at 21%. As to `COc1ccc2c(c1)CCN([C@H]1CC[C@H](c3c[nH]c4ccc(C#N)cc43)CC1)C2` [Example 3b, 3-[(1,4-trans)-4-(6-Methoxy-3,4-dihydro-1H-isoquinolin-2-yl)-cyclohexyl]-1H-indole-5-carbonitrile], at human 5-HT1A receptor, the Ki (as a rule, the dissociation constant of the complex between target and ligand, obtained from inhibition or displacement) came to 300 nM. Further, on 5-HT1A cloned receptor, the Emax – broadly, the maximal effect, on the per cent scale that the assay sets – was 0%. As to `COc1cccc2c1CCN([C@H]1CC[C@@H](c3c[nH]c4ccc(C#N)cc43)CC1)C2` [Example 4a, 3-[(1,4-cis)-4-(5-Methoxy-3,4-dihydro-1H-isoquinolin-2-yl)-cyclohexyl]-1H-indole-5-carbonitrile], on human 5-HT1A receptor ([3H]8-OH-DPAT), the inhibition at 1 µM worked out at 7%. Further, at 5-HT1A cloned receptor, the Emax is 12%. For the compound `COc1cccc2c1CCN([C@H]1CC[C@H](c3c[nH]c4ccc(C#N)cc43)CC1)C2` [Example 4b, 3-[(1,4-trans)-4-(5-Methoxy-3,4-dihydro-1H-isoquinolin-2-yl)-cyclohexyl]-1H-indole-5-carbonitrile], the inhibition at 1 µM at human 5-HT1A receptor ([3H]8-OH-DPAT) worked out at 47%. Also, on 5-HT1A cloned receptor, the Emax is 33%. Consider `N#Cc1ccc2[nH]cc([C@H]3CC[C@@H](N4CCc5ccccc5C4)CC3)c2c1` [Example 5a, 3-[(1,4-cis)-4-(3,4-Dihydro-1H-isoquinolin-2-yl)-cyclohexyl]-1H-indole-5-carbonitrile], for which, on human 5-HT1A receptor ([3H]8-OH-DPAT), the inhibition at 1 µM came out at 0%. Further, the Ki on serotonin transporter was 1.3 nM. As to `N#Cc1ccc2[nH]cc([C@H]3CC[C@H](N4CCc5ccccc5C4)CC3)c2c1` [Example 5b, 3-[(1,4-trans)-4-(3,4-Dihydro-1H-isoquinolin-2-yl)-cyclohexyl]-1H-indole-carbonitrile], at human 5-HT1A receptor ([3H]8-OH-DPAT), the inhibition at 1 µM turned out to be 10%. Take `COc1cccc2c1CCN(CCCc1c[nH]c3ccc(F)cc13)C2` [Example 6, 2-[3-(5-Fluoro-1H-indol-3-yl)-propyl]-5-methoxy-1,2,3,4-tetrahydroisoquinoline]: the inhibitory constant (Ki) is 243 nM at human 5-HT1A receptor (setting [1]) and 1.9 nM on serotonin transporter. For the same compound, the Emax at 5-HT1A cloned receptor was determined as 23%. On to `COc1ccc2c(c1)CCN(CCCc1c[nH]c3ccc(F)cc13)C2` [Example 7, 2-[3-(5-Fluoro-1H-indol-3-yl)-propyl]-6-methoxy-1,2,3,4-tetrahydroisoquinoline], for which the Ki at human 5-HT1A receptor (setting [1]) came out at 288 nM; at serotonin transporter, 1.4 nM. For the same compound, the maximal response (Emax) on 5-HT1A cloned receptor was found to be 100%. `Fc1ccc2[nH]cc(CCCN3CCc4ccccc4C3)c2c1` [Example 8, 2-[3-(5-Fluoro-1H-indol-3-yl)-propyl]-1,2,3,4-tertrahydroisoquinoline]: at human 5-HT1A receptor ([3H]8-OH-DPAT), the inhibition at 1 µM came to 48%. Moreover, the Emax on 5-HT1A cloned receptor amounted to 13%. At serotonin transporter, the Ki was 4.85 nM.
